ChEMBL document CHEMBL2413072, “Synthesis and in vitro anticancer studies of novel C-2 arylidene congeners of lantadenes” (2013)

Experiments:
Assay type in all cases: functional
[1] = system: SF-539; test: Growth inhibition of human SF539 cells assessed as cell growth at 10 uM by sulforhodamine B assay; conditions: read-out: Activity
[2] = system: PC-3; test: Growth inhibition of human PC3 cells assessed as growth inhibition at 10 uM by sulforhodamine B assay; conditions: read-out: GI
[3] = system: BT-549; test: Growth inhibition of human BT549 cells assessed as growth inhibition at 10 uM by sulforhodamine B assay; conditions: read-out: GI
[4] = Growth inhibition of human Hs 578T cells assessed as cell growth at 10 uM by sulforhodamine B assay; conditions: read-out: Activity
[5] = system: U-251; test: Growth inhibition of human U251 cells assessed as growth inhibition at 10 uM by sulforhodamine B assay; conditions: read-out: GI
[6] = system: HOP-62; test: Growth inhibition of human HOP62 cells assessed as growth inhibition at 10 uM by sulforhodamine B assay; conditions: read-out: GI
[7] = Growth inhibition of human HCC2998 cells assessed as growth inhibition at 10 uM by sulforhodamine B assay; conditions: HCC 2998, read-out: GI
[8] = system: PC-3; test: Growth inhibition of human PC3 cells assessed as cell growth at 10 uM by sulforhodamine B assay; conditions: read-out: Activity
[9] = system: A549; test: Growth inhibition of human A549/ATCC cells assessed as cell growth at 10 uM by sulforhodamine B assay; conditions: read-out: Activity
[10] = Growth inhibition of human NCI-ADR-RES cells assessed as cell growth at 10 uM by sulforhodamine B assay; conditions: read-out: Activity
[11] = system: DU-145; test: Growth inhibition of human DU145 cells assessed as cell growth at 10 uM by sulforhodamine B assay; conditions: read-out: Activity
[12] = system: RPMI-8226; test: Growth inhibition of human RPMI8226 cells assessed as cell growth at 10 uM by sulforhodamine B assay; conditions: read-out: Activity
[13] = system: SF-268; test: Growth inhibition of human SF268 cells assessed as cell growth at 10 uM by sulforhodamine B assay; conditions: read-out: Activity
[14] = system: SK-MEL-2; test: Growth inhibition of human SK-MEL-2 cells assessed as growth inhibition at 10 uM by sulforhodamine B assay; conditions: read-out: GI
[15] = system: HT-29; test: Growth inhibition of human HT-29 cells assessed as growth inhibition at 10 uM by sulforhodamine B assay; conditions: read-out: GI
[16] = system: SNB-75; test: Growth inhibition of human SNB75 cells assessed as growth inhibition at 10 uM by sulforhodamine B assay; conditions: read-out: GI
[17] = system: TK-10; test: Growth inhibition of human TK10 cells assessed as cell growth at 10 uM by sulforhodamine B assay; conditions: read-out: Activity
[18] = system: UACC-257; test: Growth inhibition of human UACC257 cells assessed as growth inhibition at 10 uM by sulforhodamine B assay; conditions: read-out: GI
[19] = system: UO-31; test: Growth inhibition of human UO31 cells assessed as cell growth at 10 uM by sulforhodamine B assay; conditions: read-out: Activity
[20] = system: SK-MEL-5; test: Growth inhibition of human SK-MEL-5 cells assessed as cell growth at 10 uM by sulforhodamine B assay; conditions: read-out: Activity
[21] = system: Malme-3M; test: Growth inhibition of human MALME-3M cells assessed as growth inhibition at 10 uM by sulforhodamine B assay; conditions: read-out: GI
[22] = system: SN12C; test: Growth inhibition of human SN12C cells assessed as cell growth at 10 uM by sulforhodamine B assay; conditions: read-out: Activity
[23] = system: SR; test: Growth inhibition of human SR cells assessed as growth inhibition at 10 uM by sulforhodamine B assay; conditions: read-out: GI
[24] = system: HOP-92; test: Growth inhibition of human HOP92 cells assessed as cell growth at 10 uM by sulforhodamine B assay; conditions: read-out: Activity
[25] = system: SNB-19; test: Growth inhibition of human SNB19 cells assessed as growth inhibition at 10 uM by sulforhodamine B assay; conditions: read-out: GI
[26] = system: HOP-92; test: Growth inhibition of human HOP92 cells assessed as growth inhibition at 10 uM by sulforhodamine B assay; conditions: read-out: GI
[27] = system: MDA-MB-231; test: Growth inhibition of human MDA-MB-231 cells assessed as cell growth at 10 uM by sulforhodamine B assay; conditions: read-out: Activity
[28] = system: A549; test: Growth inhibition of human A549/ATCC cells assessed as growth inhibition at 10 uM by sulforhodamine B assay; conditions: read-out: GI
[29] = system: OVCAR-8; test: Growth inhibition of human OVCAR8 cells assessed as cell growth at 10 uM by sulforhodamine B assay; conditions: read-out: Activity
[30] = Growth inhibition of human EKVX cells assessed as cell growth at 10 uM by sulforhodamine B assay; conditions: read-out: Activity
[31] = system: SK-OV-3; test: Growth inhibition of human SKOV3 cells assessed as cell growth at 10 uM by sulforhodamine B assay; conditions: read-out: Activity
[32] = system: OVCAR-4; test: Growth inhibition of human OVCAR4 cells assessed as cell growth at 10 uM by sulforhodamine B assay; conditions: read-out: Activity
[33] = system: T47D; test: Growth inhibition of human T47D cells assessed as growth inhibition at 10 uM by sulforhodamine B assay; conditions: read-out: GI
[34] = system: Malme-3M; test: Growth inhibition of human MALME-3M cells assessed as cell growth at 10 uM by sulforhodamine B assay; conditions: read-out: Activity
[35] = system: K562; test: Growth inhibition of human K562 cells assessed as growth inhibition at 10 uM by sulforhodamine B assay; conditions: read-out: GI
[36] = system: SW-620; test: Growth inhibition of human SW620 cells assessed as growth inhibition at 10 uM by sulforhodamine B assay; conditions: read-out: GI
[37] = system: NCI-H522; test: Growth inhibition of human NCI-H522 cells assessed as growth inhibition at 10 uM by sulforhodamine B assay; conditions: read-out: GI
[38] = system: COLO 205; test: Growth inhibition of human COLO205 cells assessed as cell growth at 10 uM by sulforhodamine B assay; conditions: read-out: Activity
[39] = system: KM12; test: Growth inhibition of human KM12 cells assessed as growth inhibition at 10 uM by sulforhodamine B assay; conditions: read-out: GI
[40] = system: KM12; test: Growth inhibition of human KM12 cells assessed as cell growth at 10 uM by sulforhodamine B assay; conditions: read-out: Activity
[41] = system: OVCAR-4; test: Growth inhibition of human OVCAR4 cells assessed as growth inhibition at 10 uM by sulforhodamine B assay; conditions: read-out: GI
[42] = system: SK-MEL-5; test: Growth inhibition of human SK-MEL-5 cells assessed as growth inhibition at 10 uM by sulforhodamine B assay; conditions: read-out: GI
[43] = system: SF-539; test: Growth inhibition of human SF539 cells assessed as growth inhibition at 10 uM by sulforhodamine B assay; conditions: read-out: GI
[44] = system: IGROV-1; test: Growth inhibition of human IGROV1 cells assessed as cell growth at 10 uM by sulforhodamine B assay; conditions: read-out: Activity
[45] = system: CAKI-1; test: Growth inhibition of human CAKI-1 cells assessed as growth inhibition at 10 uM by sulforhodamine B assay; conditions: read-out: GI
[46] = system: CAKI-1; test: Growth inhibition of human CAKI-1 cells assessed as cell growth at 10 uM by sulforhodamine B assay; conditions: read-out: Activity
[47] = system: MDA-MB-231; test: Growth inhibition of human MDA-MB-231 cells assessed as growth inhibition at 10 uM by sulforhodamine B assay; conditions: read-out: GI
[48] = system: SW-620; test: Growth inhibition of human SW620 cells assessed as cell growth at 10 uM by sulforhodamine B assay; conditions: read-out: Activity
[49] = system: MCF7; test: Growth inhibition of human MCF7 cells assessed as growth inhibition at 10 uM by sulforhodamine B assay; conditions: read-out: GI
[50] = system: K562; test: Growth inhibition of human K562 cells assessed as cell growth at 10 uM by sulforhodamine B assay; conditions: read-out: Activity

**Q.** Which results are given for `COc1cc(/C=C2\C[C@]3(C)[C@H]4CC=C5[C@@H]6CC(C)(C)C[C@@H](O)[C@]6(C(=O)O)CC[C@@]5(C)[C@]4(C)CC[C@H]3C(C)(C)C2=O)ccc1O`?
**A.** growth at 10 µM [1]: 96.1%; inhibition of growth at 10 µM [2]: 27.8%; inhibition of growth at 10 µM [3]: < 10%; growth at 10 µM [4]: 94%; inhibition of growth at 10 µM [5]: 15.3%; inhibition of growth at 10 µM [6]: < 10%; inhibition of growth at 10 µM [7]: < 10%; growth at 10 µM [8]: 72.2%; growth at 10 µM [9]: 71.8%; growth at 10 µM [10]: 92.7%; growth at 10 µM [11]: 107%; growth at 10 µM [12]: 59.5%; growth at 10 µM [13]: 109%; inhibition of growth at 10 µM [14]: < 10%; inhibition of growth at 10 µM [15]: 14.5%; inhibition of growth at 10 µM [16]: 17.9%; growth at 10 µM [17]: 116%; inhibition of growth at 10 µM [18]: < 10%; growth at 10 µM [19]: 75.5%; growth at 10 µM [20]: 88.1%; inhibition of growth at 10 µM [21]: 18.9%; growth at 10 µM [22]: 87.5%; inhibition of growth at 10 µM [23]: 12.9%; growth at 10 µM [24]: 70.9%; inhibition of growth at 10 µM [25]: < 10%; inhibition of growth at 10 µM [26]: 29.1%; growth at 10 µM [27]: 97.9%; inhibition of growth at 10 µM [28]: 28.2%; growth at 10 µM [29]: 79.8%; growth at 10 µM [30]: 88.5%; growth at 10 µM [31]: 99.2%; growth at 10 µM [32]: 83.8%; inhibition of growth at 10 µM [33]: 18.9%; growth at 10 µM [34]: 81.1%; inhibition of growth at 10 µM [35]: 28.8%; inhibition of growth at 10 µM [36]: < 10%; inhibition of growth at 10 µM [37]: 19.2%; growth at 10 µM [38]: 94.8%; inhibition of growth at 10 µM [39]: 16%; growth at 10 µM [40]: 84%; inhibition of growth at 10 µM [41]: 16.2%; inhibition of growth at 10 µM [42]: 11.9%; inhibition of growth at 10 µM [43]: < 10%; growth at 10 µM [44]: 97.8%; inhibition of growth at 10 µM [45]: 21.2%; growth at 10 µM [46]: 78.8%; inhibition of growth at 10 µM [47]: < 10%; growth at 10 µM [48]: 108%; inhibition of growth at 10 µM [49]: 22.5%; growth at 10 µM [50]: 71.2%
